Experimental findings from US20100210597A1, “C21-Deoxy Ansamycin Derivatives as Antitumor Agents” (priority 2007, published 2010) are described below.

Data set [1] in a line: Whole blood cleavage assay, mouse blood. Type of data set: in vitro ADME. As to conditions: 10 uM, 37° C., two hours. How it is done:
(§1) Human whole blood (single donor, batch HBE4534) was obtained from First Link UK Ltd. Mouse whole blood (pool of 10, batch 07-2470) was obtained from Harlan UK. Blood was collected into tubes containing EDTA as anticoagulant and shipped on ice. Blood was used on the day of arrival. In the case of human whole blood incubations were undertaken both on the fresh blood and also after freezing the blood followed by thawing. Control compounds were Lidocaine, Bisacodyl and Simvastatin.
(§2) All test compounds were incubated at 10 uM in whole blood at 37° C. At selected time points, 0.1 ml of blood was mixed with 0.3 ml of acetonitrile and vortexed immediately. All samples were centrifuged and supernatant were diluted with same volume of deionized water. […] For 20 sample analysis, mass spectrometry monitored both 17 and 20. […]
(§3) The Half life, for the disappearance of 20, was determined according to the relationship: […]
(§4) Blood cleavage assays were run to confirm that 20 acts as a prodrug and cleaves to produce compound 17 when incubated with human and mouse blood, as described in the general methods. The compound was incubated in human or mouse blood with samples removed over two hours, and analysed by LC MS/MS for presence of 20 and 17 (see FIG. 6). […] Due to the differing responses of 17 and 20 on mass spectrometry it was not possible to quantify the extent of conversion of 20 to 17.

Data set [2] can be described thus: Whole blood cleavage assay, human blood. As to conditions: 10 uM, 37° C., two hours. Type of data set: in vitro ADME. How it is done:
as §1, §2, §3, §4

Data set [3] can be described thus: Aqueous solubility by direct dissolution. Type of data set: physicochemical. The note with it: water, deionised water; limit not tested. The source says: It is not possible to measure the solubility of 20 and 23 by this method due to their intrinsic high aqueous solubility.
Data set [4] can be described thus: In vitro Caco-2 assay for cell permeability. The note with it: human, Caco-2, pH 7.4, 10 uM, 2 hour incubation. Type of data set: in vitro ADME. Here is the method:
(§5) Caco-2 cells (ATCC Cat. # HTB-37) were grown on fibrillar collagen-coated, microporous, polycarbonate membranes in 24-well BioCaot™ insert plates. Following 5-day growth in Eagle's minimum essential medium supplemented with 10% FBS, the cells were exposed to BioCoat Enterocyte Differentiation Medium (BD, Cat. # 05496) for 2 days to induce enterocytic differentiation. Prior to dosing, the transepithelial electric resistance (TEER) of the Caco-2 cells in each well was measured to ensure the quality of the monolayers.
(§6) The stock solutions of test compounds were prepared at 3 mM in DMSO. Dosing solutions were prepared in the permeability assay buffer at 10 μm. The permeability assay buffer was Hank's balanced salt solution containing 10 mM HEPES at a pH of 7.4±0.2.
(§7) The Caco-2 cells were dosed with the test compounds on either apical side (for A-to-B permeation) or basolateral side (for B-to-A permeation) and incubated at 37° C. with 5% CO2 and 90% relative humidity. The testing for each compound was performed in duplicate. After 2 hour incubation, a 20-μL sample was taken from each of dosing solutions and both donor and receiver compartments. To ensure the validity of the Caco-2 assay, propranolol and vinblastine were used as a high- and a low- to medium-permeability positive control, respectively. Vinblastine also served as a P-gp substrate, tested in conjunction with a P-gp inhibitor, verapamil.
(§8) To quantify test compounds by LC/MS/MS, a related geldanamycin-like compound, 17-methoxyethylamino geldanamycin (Schnur et al., 1995), was used as the internal standard. The calculation of permeability of each compound involved only the concentration ratio of the same test compound, the concentration ratio was expressed in the peak area ratio of the test compound to the internal standard. The peak area ratio of each compound was derived by LC-MS/MS.
(§9) The apparent permeability coefficient Papp was calculated as below: […]
(§10) dCr: cumulative concentration in the receiver compartment in M. dt: duration of the assay (i.e., 7200 seconds). Vr: volume of the receiver compartment in cm^3. A: area of the cell monolayer (0.31 cm^2 for 24-well BioCoat™ plate). C0: concentration of the dosing solution in M.
(§11) The in vitro permeability of 20 and the parent 17 were assayed using caco-2 cells, as described in the general methods. All compounds were analysed at a concentration of 10 uM.

Another data set deals with Caco-2 cells. In words: In vitro Caco-2 assay for cell permeability. It counts as in vitro ADME. The note with it: 10 uM, 2 hour incubation. Here is the method: as §5, §6, §7, §8, §9, §10, §11
The next data set deals with CXF HT29. The data set is described as follows: Monolayer proliferation assay (modified propidium iodide), CXF HT29. Type of data set: cell-based, human. As to conditions: average of 2 experiments. How it is done:
In vitro evaluation of compounds for anticancer activity in a panel of human tumour cell lines in a monolayer proliferation assay was carried out at the Oncotest Testing Facility, Institute for Experimental Oncology, Oncotest GmbH, Freiburg.
The Oncotest cell lines are established from human tumor xenografts as described by Roth et al., (1999). The origin of the donor xenografts is described by Fiebig et al., (1999). Other cell lines are either obtained from the NCl (DU145, MCF-7) or purchased from DSMZ, Braunschweig, Germany.
All cell lines, unless otherwise specified, are grown at 37° C. in a humidified atmosphere (95% air, 5% CO2) in a ‘ready-mix’ medium containing RPMI 1640 medium, 10% fetal calf serum, and 0.1 mg/mL gentamicin (PAA, Cölbe, Germany).
A modified propidium iodide assay was used to assess the effects of the test compound(s) on the growth of six human tumour cell lines (Dengler et al., (1995)).
Briefly, cells are harvested from exponential phase cultures by trypsinization, counted and plated in 96 well flat-bottomed microtitre plates at a cell density dependent on the cell line (5-10.000 viable cells/well). After 24 h recovery to allow the cells to resume exponential growth, 0.010 mL of culture medium (6 control wells per plate) or culture medium containing macbecin were added to the wells. Each concentration is plated in triplicate. Compounds were applied in two concentrations (0.001 mM and 0.01 mM). Following 4 days of continuous exposure, cell culture medium with or without test compound was replaced by 0.2 mL of an aqueous propidium iodide (P1) solution (7 mg/L). To measure the proportion of living cells, cells were permeabilized by freezing the plates. After thawing the plates, fluorescence was measured using the Cytofluor 4000 microplate reader (excitation 530 nm, emission 620 nm), giving a direct relationship to the total number of viable cells.
Growth inhibition is expressed as treated/control×100 (% T/C).
In vitro evaluation of the test compound, 20, for anticancer activity in a panel of human tumour cell lines in a monolayer proliferation assay was carried out as described in the general methods using a modified propidium iodide assay.

“And” between values parts separate entries of the source, which are not always exact repeats. Equal entries are not always repeated. Where two headings read alike, the source gives them in different places.

For `CO[C@H]1C[C@H](C)Cc2cc(cc(OP(=O)(O)O)c2)NC(=O)/C(C)=C/CC[C@H](C)[C@@H](OC(N)=O)/C(C)=C/[C@H](C)[C@H]1O` [Compound 20, 4,5-dihydro-11-O-demethyl-15-demethoxy-18,21-didehydro-21-deoxomacbecin-18-phosphate], the conversion in blood entry is “act as a prodrug and release 17” in data set [1]; “act as a prodrug and release 17” in data set [2]. The solubility in data set [3] is ≥ 10000 µg/mL and ≥ 17000 µM. Also, the efflux ratio at 2 h, 10 uM in data set [4] (read-out: Efflux ratio Papp(B → A)/Papp(A → B)) came to 0.7. In addition, the Papp A→B at 2 h, 10 uM in data set [4] (read-out: Permeability Apical to Basolateral Papp(A → B) Mean) was 0.49 ×10⁻⁶ cm/s; in data set [4] (read-out: Permeability Apical to Basolateral Papp(A → B) Rep. 1) it was 0.67 ×10⁻⁶ cm/s; in data set [4] (read-out: Permeability Apical to Basolateral Papp(A → B) Rep. 2), 0.31 ×10⁻⁶ cm/s. Besides, the apparent permeability from basolateral to apical (Papp B→A) at 2 h, 10 uM amounted to 0.35 ×10⁻⁶ cm/s in data set [4] (read-out: Permeability Basolateral to Apical Papp(B → A) Mean), 0.22 ×10⁻⁶ cm/s in data set [4] (read-out: Permeability Basolateral to Apical Papp(B → A) Rep. 1) and 0.48 ×10⁻⁶ cm/s in data set [4] (read-out: Permeability Basolateral to Apical Papp(B → A) Rep. 2). For the same compound, the “Efflux Limited” value in the data set with Caco-2 cells was “No”. For the same compound, the “Test/Control (%) at drug concentration (μg/mL)” value in the data set with CXF HT29 (CXF HT29, 0.01 μg/mL) worked out at 112%; in the data set with CXF HT29 (CXF HT29, 0.1 μg/mL), 43%; in the data set on CXF HT29 (CXF HT29, 1 μg/mL) it was 7%; with CXF HT29 (CXF HT29, 10 μg/mL), 7%; in the data set with CXF HT29 (CXF HT29, 100 μg/mL) it was 5%.
